The results in this text go back to ChEMBL document CHEMBL4507274 (2021).

Assay [1] concerns Tyrosine-protein kinase ABL1 (Homo sapiens), P00519 [H396P]. The following applies: Compound concentration 100.0 nM.
In assay [2] the target is RAC-gamma serine/threonine-protein kinase (Homo sapiens) (UniProt Q9Y243). The following applies: Compound concentration 100.0 nM.
Assay [3] deals with Mitogen-activated protein kinase kinase kinase 5 (Homo sapiens) (UniProt Q99683). The following applies: Compound concentration 100.0 nM.
Assay [4] addresses Casein kinase I isoform delta (Homo sapiens) (UniProt P48730). The following applies: Compound concentration 100.0 nM.
Assay [5] concerns the target Ephrin type-B receptor 2 (Homo sapiens) (UniProt P29323). The following applies: Compound concentration 100.0 nM.
The target of assay [6] is T1, Ephrin type-B receptor 4 (Homo sapiens) (UniProt P54760).
T1 sequence (whole entry): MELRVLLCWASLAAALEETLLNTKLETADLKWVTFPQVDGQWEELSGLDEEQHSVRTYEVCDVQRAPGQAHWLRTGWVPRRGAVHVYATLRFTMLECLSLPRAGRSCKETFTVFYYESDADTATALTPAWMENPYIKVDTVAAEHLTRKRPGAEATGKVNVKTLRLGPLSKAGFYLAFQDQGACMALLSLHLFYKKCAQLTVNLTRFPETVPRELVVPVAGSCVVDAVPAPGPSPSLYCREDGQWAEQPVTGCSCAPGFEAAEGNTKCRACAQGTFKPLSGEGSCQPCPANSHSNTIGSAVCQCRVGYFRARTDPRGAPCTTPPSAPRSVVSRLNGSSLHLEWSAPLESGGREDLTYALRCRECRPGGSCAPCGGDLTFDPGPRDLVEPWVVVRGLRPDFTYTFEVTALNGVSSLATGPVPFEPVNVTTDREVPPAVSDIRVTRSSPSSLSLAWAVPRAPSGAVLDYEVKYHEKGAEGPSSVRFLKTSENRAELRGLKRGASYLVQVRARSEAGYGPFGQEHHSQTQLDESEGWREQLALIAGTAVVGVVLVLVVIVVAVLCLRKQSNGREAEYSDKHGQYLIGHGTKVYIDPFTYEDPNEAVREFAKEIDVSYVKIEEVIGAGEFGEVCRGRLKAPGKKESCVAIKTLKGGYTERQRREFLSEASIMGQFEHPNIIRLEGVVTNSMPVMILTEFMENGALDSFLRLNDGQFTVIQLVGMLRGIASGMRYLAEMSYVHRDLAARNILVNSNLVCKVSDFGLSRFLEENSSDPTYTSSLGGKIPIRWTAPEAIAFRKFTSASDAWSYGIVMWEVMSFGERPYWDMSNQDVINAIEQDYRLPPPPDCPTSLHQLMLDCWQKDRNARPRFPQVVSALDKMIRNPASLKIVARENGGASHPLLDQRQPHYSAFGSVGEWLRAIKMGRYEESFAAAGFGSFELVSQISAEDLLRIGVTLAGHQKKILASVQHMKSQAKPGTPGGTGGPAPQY
The following applies: Compound concentration 100.0 nM.

Assay [7] has as its system Receptor-type tyrosine-protein kinase FLT3 (Homo sapiens), P36888 [K663Q]. The following applies: Compound concentration 100.0 nM.
The target of assay [8] is Mitogen-activated protein kinase 9 (Homo sapiens) (UniProt P45984). The following applies: Compound concentration 100.0 nM.
In assay [9] the target is Platelet-derived growth factor receptor beta (Homo sapiens) (UniProt P09619). The following applies: Compound concentration 100.0 nM.
Assay [10] deals with Phosphatidylinositol 4,5-bisphosphate 3-kinase catalytic subunit alpha isoform (Homo sapiens), P42336 [H1047Y]. The following applies: Compound concentration 100.0 nM.
For assay [11], the system named is Phosphatidylinositol 4,5-bisphosphate 3-kinase catalytic subunit alpha isoform (Homo sapiens), P42336 [M1043I]. The following applies: Compound concentration 100.0 nM.
Assay [12] concerns the target cAMP-dependent protein kinase catalytic subunit alpha (Homo sapiens) (UniProt P17612). The following applies: Compound concentration 100.0 nM.
Assay [13] concerns the target T2, Serine/threonine-protein kinase D2 (Homo sapiens) (UniProt Q9BZL6).
T2 sequence (whole entry): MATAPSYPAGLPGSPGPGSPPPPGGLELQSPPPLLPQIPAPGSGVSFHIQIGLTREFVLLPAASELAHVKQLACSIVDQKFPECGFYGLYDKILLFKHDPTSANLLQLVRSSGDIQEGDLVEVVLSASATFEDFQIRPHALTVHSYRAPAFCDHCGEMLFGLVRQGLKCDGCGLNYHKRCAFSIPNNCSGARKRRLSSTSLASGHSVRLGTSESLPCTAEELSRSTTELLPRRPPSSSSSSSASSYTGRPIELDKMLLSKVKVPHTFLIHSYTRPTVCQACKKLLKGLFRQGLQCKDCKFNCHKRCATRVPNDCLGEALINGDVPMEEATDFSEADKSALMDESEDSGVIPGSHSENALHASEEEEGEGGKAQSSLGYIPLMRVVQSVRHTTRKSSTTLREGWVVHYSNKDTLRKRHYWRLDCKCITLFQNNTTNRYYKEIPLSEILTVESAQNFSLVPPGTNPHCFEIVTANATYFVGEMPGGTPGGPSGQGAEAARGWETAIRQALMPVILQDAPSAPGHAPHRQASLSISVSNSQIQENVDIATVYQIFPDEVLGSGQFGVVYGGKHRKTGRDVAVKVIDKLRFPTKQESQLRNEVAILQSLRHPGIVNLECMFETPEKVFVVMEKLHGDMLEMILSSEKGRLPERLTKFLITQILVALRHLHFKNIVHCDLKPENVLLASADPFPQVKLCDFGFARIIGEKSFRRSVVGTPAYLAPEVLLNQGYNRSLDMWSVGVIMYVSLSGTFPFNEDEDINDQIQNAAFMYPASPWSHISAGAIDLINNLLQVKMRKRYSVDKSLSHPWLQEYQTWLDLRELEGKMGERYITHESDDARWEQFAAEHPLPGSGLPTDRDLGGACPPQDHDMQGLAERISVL
The following applies: Compound concentration 100.0 nM.

The test system of assay [14] is Proto-oncogene tyrosine-protein kinase receptor Ret (Homo sapiens), P07949 [M918T]. The following applies: Compound concentration 100.0 nM.
In assay [15] the target is Non-receptor tyrosine-protein kinase TNK1 (Homo sapiens) (UniProt Q13470). The following applies: Compound concentration 100.0 nM.
For assay [16], the target named is 5-hydroxytryptamine receptor 1D (Homo sapiens) (UniProt P28221). The following applies: Compound concentration 10.0 uM.
5-hydroxytryptamine receptor 1D (Homo sapiens), sequence (P28221 whole entry): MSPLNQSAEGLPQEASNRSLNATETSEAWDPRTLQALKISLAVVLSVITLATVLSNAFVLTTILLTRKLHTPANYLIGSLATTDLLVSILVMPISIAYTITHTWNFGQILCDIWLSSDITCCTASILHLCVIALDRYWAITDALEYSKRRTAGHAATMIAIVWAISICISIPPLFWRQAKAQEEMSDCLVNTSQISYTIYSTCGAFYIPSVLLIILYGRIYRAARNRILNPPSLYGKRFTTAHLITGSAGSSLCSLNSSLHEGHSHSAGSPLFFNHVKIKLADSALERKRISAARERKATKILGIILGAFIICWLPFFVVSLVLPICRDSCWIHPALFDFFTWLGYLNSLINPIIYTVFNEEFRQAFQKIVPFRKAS

Phosphatidylinositol 4,5-bisphosphate 3-kinase catalytic subunit alpha isoform (Homo sapiens), P42336 [H1047Y], sequence (P42336 whole entry H1047Y, canonical isoform): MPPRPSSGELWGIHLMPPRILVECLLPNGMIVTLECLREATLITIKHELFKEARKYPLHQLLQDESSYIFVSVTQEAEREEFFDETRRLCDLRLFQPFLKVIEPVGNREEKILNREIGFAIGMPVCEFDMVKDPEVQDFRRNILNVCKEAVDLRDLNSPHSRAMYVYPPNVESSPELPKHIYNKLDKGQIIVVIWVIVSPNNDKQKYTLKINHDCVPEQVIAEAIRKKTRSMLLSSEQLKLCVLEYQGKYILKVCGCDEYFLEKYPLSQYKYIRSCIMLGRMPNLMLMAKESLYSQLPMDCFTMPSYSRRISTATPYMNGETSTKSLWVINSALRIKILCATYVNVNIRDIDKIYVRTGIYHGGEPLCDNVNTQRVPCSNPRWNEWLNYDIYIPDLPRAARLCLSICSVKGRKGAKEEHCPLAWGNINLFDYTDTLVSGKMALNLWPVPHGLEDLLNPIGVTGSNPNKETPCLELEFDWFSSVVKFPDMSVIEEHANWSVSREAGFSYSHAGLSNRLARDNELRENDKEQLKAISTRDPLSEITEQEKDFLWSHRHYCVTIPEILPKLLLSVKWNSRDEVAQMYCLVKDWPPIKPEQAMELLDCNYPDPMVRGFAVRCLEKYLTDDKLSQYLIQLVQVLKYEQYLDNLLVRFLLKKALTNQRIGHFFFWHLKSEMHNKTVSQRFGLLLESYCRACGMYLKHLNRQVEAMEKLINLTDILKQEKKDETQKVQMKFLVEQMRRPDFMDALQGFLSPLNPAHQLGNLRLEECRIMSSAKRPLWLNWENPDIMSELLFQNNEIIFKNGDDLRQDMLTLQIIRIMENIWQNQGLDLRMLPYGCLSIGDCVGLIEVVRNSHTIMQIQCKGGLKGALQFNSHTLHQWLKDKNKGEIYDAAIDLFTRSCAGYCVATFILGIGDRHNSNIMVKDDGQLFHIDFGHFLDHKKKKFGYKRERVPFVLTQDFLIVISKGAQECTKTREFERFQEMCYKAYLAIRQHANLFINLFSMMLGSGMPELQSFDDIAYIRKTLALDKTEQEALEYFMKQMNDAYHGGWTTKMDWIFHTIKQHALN
Mitogen-activated protein kinase 9 (Homo sapiens), sequence (P45984 whole entry, looked up): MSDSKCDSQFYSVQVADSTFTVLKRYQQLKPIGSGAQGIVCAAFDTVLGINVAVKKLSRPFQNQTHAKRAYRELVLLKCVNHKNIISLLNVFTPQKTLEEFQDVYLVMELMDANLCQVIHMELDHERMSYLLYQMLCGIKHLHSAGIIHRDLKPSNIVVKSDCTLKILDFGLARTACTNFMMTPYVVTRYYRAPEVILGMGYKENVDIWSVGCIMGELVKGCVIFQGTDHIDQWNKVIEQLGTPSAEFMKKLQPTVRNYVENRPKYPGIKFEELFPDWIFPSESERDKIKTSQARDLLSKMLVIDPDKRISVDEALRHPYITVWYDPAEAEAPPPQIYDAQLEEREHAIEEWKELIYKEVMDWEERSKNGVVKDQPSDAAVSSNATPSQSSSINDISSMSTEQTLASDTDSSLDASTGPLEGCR
Proto-oncogene tyrosine-protein kinase receptor Ret (Homo sapiens), P07949 [M918T], sequence (P07949 whole entry M918T): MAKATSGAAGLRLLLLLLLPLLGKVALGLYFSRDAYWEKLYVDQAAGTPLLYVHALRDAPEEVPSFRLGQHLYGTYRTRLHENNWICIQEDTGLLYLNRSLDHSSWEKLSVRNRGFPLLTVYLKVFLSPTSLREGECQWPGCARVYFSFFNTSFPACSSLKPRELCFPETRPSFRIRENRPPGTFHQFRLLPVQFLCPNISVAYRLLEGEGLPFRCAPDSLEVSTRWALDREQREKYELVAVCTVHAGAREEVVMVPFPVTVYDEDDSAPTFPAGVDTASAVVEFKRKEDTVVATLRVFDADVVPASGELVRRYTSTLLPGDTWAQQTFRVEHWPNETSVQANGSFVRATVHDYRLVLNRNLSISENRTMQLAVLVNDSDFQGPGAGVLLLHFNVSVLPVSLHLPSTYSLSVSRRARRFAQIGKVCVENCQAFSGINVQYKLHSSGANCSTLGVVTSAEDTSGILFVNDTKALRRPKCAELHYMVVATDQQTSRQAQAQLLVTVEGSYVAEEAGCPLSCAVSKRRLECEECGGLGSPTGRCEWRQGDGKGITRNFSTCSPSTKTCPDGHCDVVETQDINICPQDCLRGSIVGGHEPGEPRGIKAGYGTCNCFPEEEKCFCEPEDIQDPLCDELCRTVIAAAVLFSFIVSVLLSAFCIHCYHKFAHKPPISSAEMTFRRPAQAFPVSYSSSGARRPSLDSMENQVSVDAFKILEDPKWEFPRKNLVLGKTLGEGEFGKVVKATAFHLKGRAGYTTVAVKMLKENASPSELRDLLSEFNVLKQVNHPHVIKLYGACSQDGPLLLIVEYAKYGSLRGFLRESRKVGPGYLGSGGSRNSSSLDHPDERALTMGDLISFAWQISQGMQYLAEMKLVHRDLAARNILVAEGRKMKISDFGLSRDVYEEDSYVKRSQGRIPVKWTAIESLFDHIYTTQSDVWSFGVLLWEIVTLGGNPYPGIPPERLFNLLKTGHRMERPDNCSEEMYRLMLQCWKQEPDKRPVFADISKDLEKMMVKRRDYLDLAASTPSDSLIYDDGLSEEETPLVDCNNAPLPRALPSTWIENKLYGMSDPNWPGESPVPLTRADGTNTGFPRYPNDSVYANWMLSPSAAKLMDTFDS
Ephrin type-B receptor 2 (Homo sapiens), sequence (P29323 whole entry): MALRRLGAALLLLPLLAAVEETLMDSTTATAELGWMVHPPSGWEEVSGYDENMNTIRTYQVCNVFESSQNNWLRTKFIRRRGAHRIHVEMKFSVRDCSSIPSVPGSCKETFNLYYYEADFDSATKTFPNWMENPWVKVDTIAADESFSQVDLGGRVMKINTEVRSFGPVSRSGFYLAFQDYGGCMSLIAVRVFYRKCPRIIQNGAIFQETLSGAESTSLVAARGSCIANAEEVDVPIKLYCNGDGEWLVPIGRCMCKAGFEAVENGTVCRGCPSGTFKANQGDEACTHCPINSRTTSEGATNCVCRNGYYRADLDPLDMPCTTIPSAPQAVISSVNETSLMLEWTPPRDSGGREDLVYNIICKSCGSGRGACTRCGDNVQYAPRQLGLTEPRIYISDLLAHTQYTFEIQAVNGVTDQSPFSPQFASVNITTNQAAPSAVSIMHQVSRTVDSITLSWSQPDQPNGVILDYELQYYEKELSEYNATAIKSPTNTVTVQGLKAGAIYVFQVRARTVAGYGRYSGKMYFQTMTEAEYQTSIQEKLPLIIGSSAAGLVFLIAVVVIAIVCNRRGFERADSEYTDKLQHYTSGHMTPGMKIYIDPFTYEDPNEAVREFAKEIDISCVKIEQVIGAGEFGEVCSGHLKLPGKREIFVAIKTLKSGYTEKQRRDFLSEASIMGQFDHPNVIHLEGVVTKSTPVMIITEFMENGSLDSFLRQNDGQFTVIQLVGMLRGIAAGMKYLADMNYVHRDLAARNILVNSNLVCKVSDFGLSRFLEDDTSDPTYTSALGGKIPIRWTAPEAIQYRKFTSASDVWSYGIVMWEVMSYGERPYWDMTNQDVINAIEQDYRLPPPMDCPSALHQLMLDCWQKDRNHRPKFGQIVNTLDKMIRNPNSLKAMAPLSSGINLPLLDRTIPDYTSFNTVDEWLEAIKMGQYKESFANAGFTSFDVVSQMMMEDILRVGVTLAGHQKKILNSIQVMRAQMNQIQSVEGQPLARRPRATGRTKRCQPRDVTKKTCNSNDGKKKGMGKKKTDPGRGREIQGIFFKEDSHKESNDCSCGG
RAC-gamma serine/threonine-protein kinase (Homo sapiens), sequence (Q9Y243 whole entry): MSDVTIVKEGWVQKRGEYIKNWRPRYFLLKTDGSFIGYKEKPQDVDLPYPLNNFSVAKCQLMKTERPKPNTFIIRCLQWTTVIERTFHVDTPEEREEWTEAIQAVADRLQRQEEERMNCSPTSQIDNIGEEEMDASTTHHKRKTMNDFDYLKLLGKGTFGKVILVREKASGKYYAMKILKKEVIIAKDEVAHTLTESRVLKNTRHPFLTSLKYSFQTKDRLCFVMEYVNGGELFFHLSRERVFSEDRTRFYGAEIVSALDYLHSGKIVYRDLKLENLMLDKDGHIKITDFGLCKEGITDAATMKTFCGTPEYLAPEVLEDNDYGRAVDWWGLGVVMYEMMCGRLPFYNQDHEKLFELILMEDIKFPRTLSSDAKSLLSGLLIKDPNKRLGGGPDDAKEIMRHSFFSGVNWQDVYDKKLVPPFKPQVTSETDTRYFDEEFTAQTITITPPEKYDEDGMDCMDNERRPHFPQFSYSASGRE
Casein kinase I isoform delta (Homo sapiens), sequence (P48730 whole entry, looked up, canonical isoform): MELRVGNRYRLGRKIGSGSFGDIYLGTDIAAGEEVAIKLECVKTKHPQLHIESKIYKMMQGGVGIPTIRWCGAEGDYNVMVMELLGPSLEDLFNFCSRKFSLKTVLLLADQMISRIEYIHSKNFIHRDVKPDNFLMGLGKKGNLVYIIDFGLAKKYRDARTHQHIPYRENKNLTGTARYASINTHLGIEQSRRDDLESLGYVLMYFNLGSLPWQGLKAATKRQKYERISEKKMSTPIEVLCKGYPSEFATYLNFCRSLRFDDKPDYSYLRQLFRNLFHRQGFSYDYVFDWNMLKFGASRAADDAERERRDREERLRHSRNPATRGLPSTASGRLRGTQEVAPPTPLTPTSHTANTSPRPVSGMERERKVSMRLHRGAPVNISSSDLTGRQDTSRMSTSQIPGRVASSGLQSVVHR

Regarding `Cc1c[nH]c2nccc(Oc3c(F)cc(Nc4cc(Cl)nc(N)n4)cc3F)c12` [BAY-549], the residual activity in assay [1] was 82%; in assay [2] it was 78%; in assay [3] it was 98%; in assay [4], 100%; in assay [5], 99%; in assay [6], 100%. In addition, the residual activity in [7] is 87%; in assay [8], 93%; in assay [9] it was 83%; in [10], 83%; in assay [11] it was 66%; in assay [12], 28%. Besides, the figures for the residual activity in assay [13], in assay [14] and in assay [15] were 94%, 100% and 100%, respectively. Moreover, the inhibition in assay [16] was 45%.
With `Cn1cc(Cl)c2c(Oc3c(F)cc(Nc4cc(Cl)nc(N)n4)cc3F)ccnc21` [BAY-4900], the residual activity in assay [1] was 84%; in assay [2], 98%; in assay [3], 97%; in assay [4], 100%; in [5], 100%; in assay [6] it was 100%. For the same compound, the residual activity in [7] is 100%; in assay [8], 86%; in [9] it was 96%; in assay [10], 62%; in assay [11], 64%; in assay [12], 90%. Besides, the residual activity in assay [13] is 91%; in [14] it was 92%; in [15], 100%. In assay [16], the inhibition is -5.84%.
